These results are taken from US12201640B2, “19-nor C3,3-disubstituted C21-n-pyrazolyl steroids and methods of use thereof” (Sage Therapeutics, Inc., priority 2013, dated 2025).

Where two headings read alike, the source gives them in different places.

For one assay, the system named is PTZ-treated mice. The experiment in a line: Acute PTZ (pentylenetetrazol-induced seizure) assay in mice. Conditions: latency to tonic seizures. The format is in vivo, mouse. As to the method: The anticonvulsant effect of test compounds were assessed in the pentylenetetazol-induced seizure assay in mice similar to methods described in Giardina & Gasior (2009) Curr Protoc Pharmacol., Chapter 5. Male CD-1 mice were housed in groups of five under controlled conditions (temperature of 22±2° C. and 12:12 light-dark cycle, lights on at 8:00 am) and water and food were available ad libitum. The mice were housed for 1 week prior to behavioral testing, at which time they weighed 25-35 g. Pentylenetetrazol (PTZ, Sigma) was dissolved in sterile 0.9% saline at a concentration of 12 mg/mL concentration for subcutaneous administration. Test compounds were formulated and administered via oral gavage or intraperitoneal injection at a predetermined time-point (typically 30 or 60 minutes) prior to PTZ injection. All solutions were made fresh and were given in a volume of 10 ml/kg body weight.
Mice were acclimated to the test room for at least 30 min before compound administration. Mice were randomized into at least four test groups (vehicle and at least three doses of the test compound) with 10 mice per group. […] Following the drug pretreatment time the mice were injected s.c. with PTZ (120 mg/kg). Immediately following the PTZ injection, mice were individually placed into observation chambers (25×15×15 cm) and a three-channel timer was started. Each mouse was continuously observed for 30 min and the following behaviors were recorded by observers blinded to the treatments: 1) latency to clonic convulsions that persist for 3 sec and followed by an absence of righting reflex 2) latency to tonic convulsions, characterized by the rigid extension of all four limbs that exceeded a 90 degree angle with the body 3) latency to death 4) number of clonic and tonic convulsions. Data are presented as mean±S.E.M and one-way analysis of variance with Dunnett's or Bonferroni's post-hoc test was used to detect significant differences in latency and number between the vehicle and dose group. p values<0.05 were regarded as statistically significant.

A further assay deals with T1, GABAA-R (Homo sapiens, UniProt P14867+P47870).
T1 sequence (P14867 1-456): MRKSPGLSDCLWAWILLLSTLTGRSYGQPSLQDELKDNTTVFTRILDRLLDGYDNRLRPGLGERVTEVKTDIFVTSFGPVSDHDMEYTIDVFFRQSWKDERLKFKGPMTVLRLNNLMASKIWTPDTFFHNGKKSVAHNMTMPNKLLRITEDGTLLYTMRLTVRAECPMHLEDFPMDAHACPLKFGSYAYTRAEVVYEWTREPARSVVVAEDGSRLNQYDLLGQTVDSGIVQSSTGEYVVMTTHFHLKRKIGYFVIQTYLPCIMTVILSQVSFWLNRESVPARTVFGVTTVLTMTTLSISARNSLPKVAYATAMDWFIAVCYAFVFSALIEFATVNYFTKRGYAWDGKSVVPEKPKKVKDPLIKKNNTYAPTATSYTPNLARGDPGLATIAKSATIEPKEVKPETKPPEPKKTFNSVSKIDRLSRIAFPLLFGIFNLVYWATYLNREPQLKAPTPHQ
T1 sequence (P47870 1-512): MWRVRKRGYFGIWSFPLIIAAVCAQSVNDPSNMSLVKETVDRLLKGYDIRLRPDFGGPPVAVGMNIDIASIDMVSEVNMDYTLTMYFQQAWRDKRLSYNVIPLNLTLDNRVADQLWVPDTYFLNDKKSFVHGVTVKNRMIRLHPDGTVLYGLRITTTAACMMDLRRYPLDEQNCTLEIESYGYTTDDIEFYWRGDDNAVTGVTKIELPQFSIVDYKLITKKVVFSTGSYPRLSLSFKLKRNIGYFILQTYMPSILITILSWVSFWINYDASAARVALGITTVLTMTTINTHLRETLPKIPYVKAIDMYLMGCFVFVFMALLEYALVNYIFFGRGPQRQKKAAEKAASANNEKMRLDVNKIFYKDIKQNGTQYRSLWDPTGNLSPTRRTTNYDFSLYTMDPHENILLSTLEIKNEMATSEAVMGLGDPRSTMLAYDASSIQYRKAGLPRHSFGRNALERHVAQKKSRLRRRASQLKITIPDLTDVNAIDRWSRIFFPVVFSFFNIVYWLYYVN
Briefly: Electrophysiological evaluation at GABAA-R (Table 2). It is filed as cell-based. How it is done: Patch Clamp Electrophysiology of Recombinant α1β2γ2 and α4β3δ GABAA Receptors
Cellular electrophysiology is used to measure the pharmacological properties of our GABAA receptor modulators in heterologous cell systems. Each compound is tested for its ability to affect GABA mediated currents at a submaximal agonist dose (GABA EC20=2 μM). LTK cells are stably transfected with the α1β2γ2 subunits of the GABA receptor and CHO cells are transiently transfected with the α4β3δ subunits via the Lipofecatamine method. Cells were passaged at a confluence of about 50-80% and then seeded onto 35 mm sterile culture dishes containing 2 ml culture complete medium without antibiotics or antimycotics. Confluent clusters of cells are electrically coupled (Pritchett et al., Science, 1988, 242, 1306-1308.). Because responses in distant cells are not adequately voltage clamped and because of uncertainties about the extent of coupling (Verdoorn et al., Neuron 1990, 4, 919-928.), cells were cultivated at a density that enables the recording of single cells (without visible connections to other cells).
Whole cell currents were measured with HEKA EPC-10 amplifiers using PatchMaster software or by using the high throughput QPatch platform (Sophion). Bath solution for all experiments contained (in mM): NaCl 137 mM, KCl 4 mM, CaCl2 1.8 mM, MgCl2 1 mM, HEPES 10 mM, D-Glucose 10 mM, pH (NaOH) 7.4. In some cases 0.005% cremophor was also added. Intracellular (pipette) solution contained: KCl 130 mM, MgCl2 1 mM, Mg-ATP 5 mM, HEPES 10 mM, EGTA 5 mM, pH 7.2. During experiments, cells and solutions were maintained at room temperature (19° C.-30° C.). For manual patch clamp recordings, cell culture dishes were placed on the dish holder of the microscope and continuously perfused (1 ml/min) with bath solution. After formation of a Gigaohm seal between the patch electrodes and the cell (pipette resistance range: 2.5 MΩ-6.0 MΩ; seal resistance range: >1 GΩ) the cell membrane across the pipette tip was ruptured to assure electrical access to the cell interior (whole-cell patch-configuration). For experiments using the QPatch system, cells were transferred as suspension to the QPatch system in the bath solution and automated whole cell recordings were performed.
Cells were voltage clamped at a holding potential of −80 mV. For the analysis of test articles, GABA receptors were stimulated by 2 μM GABA after sequential pre-incubation of increasing concentrations of the test article. Pre-incubation duration was 30 s and the duration of the GABA stimulus was 2 s. Test articles were dissolved in DMSO to form stock solutions (10 mM). Test articles were diluted to 0.01, 0.1, 1, and 10 μM in bath solution. All concentrations of test articles were tested on each cell. The relative percentage potentiation was defined as the peak amplitude in response to GABA EC20 in the presence of the test article divided by the peak amplitude in response to GABA EC20 alone, multiplied by 100.

Where [1] appears, read: GABAA-R electrophysiology, read-out: EC50.

One may read the EC50 as the concentration that produces a half-maximal response. The term Emax denotes the maximal effect, on the per cent scale that the assay sets. For `C[C@@]1(O)CC[C@H]2[C@H](CC[C@@H]3[C@@H]2CC[C@]2(C)[C@@H](C(=O)Cn4cc(C#N)cn4)CC[C@@H]32)C1` [SA-4], the “Anticonvulsive Effect Dose (minimal effective anticonvulsant dose)” value with PTZ-treated mice (PO) is “A (PO) (<3 mpk)”. In addition, the EC50 at GABAA-R fell in the range of 100 to 500 nM. In addition, the maximum response (Emax) on GABAA-R (GABAA-R electrophysiology) fell in the range of 0 to 500%.

In the case of `Cc1cnn(CC(=O)[C@H]2CC[C@H]3[C@@H]4CC[C@@H]5C[C@](C)(O)CC[C@@H]5[C@H]4CC[C@]23C)c1` [SA-6], on GABAA-R (GABAA-R electrophysiology), the Emax lay in the range of 0 to 500%. Also, the concentration for a half-maximal effect (EC50) at GABAA-R (setting [1]) was in the range of 100 to 500 nM.

On to `C[C@@]1(O)CC[C@H]2[C@H](CC[C@@H]3[C@@H]2CC[C@]2(C)[C@@H](C(=O)Cn4cccn4)CC[C@@H]32)C1` [SA-13], for which the “Anticonvulsive Effect Dose (minimal effective anticonvulsant dose)” value in the assay on PTZ-treated mice (IP) is recorded as “B (IP) (≥3 mpk)”. Moreover, the maximum response (Emax) on GABAA-R (GABAA-R electrophysiology) was in the range of 0 to 500%. Further, the EC50 at GABAA-R (setting [1]) fell in the range of 500 to 1000 nM.
